For assay [1], the system named is P. aeruginosa biofilm. Particulars: Overhage et al.; cited from earlier work.
Assay [2] relates to C. albicans (ATCC 14053). Put plainly: Anti-microbial assay (CFU survival, EC50) against C. albicans. It counts as cell-based, Candida albicans. Particulars: for EC50 against C. albicans: 3 hours, 37° C., 10 mM sodium phosphate pH 7.4, inconsistent colony growth; for Inhibition of C. albicans: at 500 and 100 μg; for EC50: converted with molecular weight. The procedure:
C. albicans (ATCC 14053) was grown up in 25 mL of Sabouraud Dextrose (SO) broth for 48 hours at 25° C., after which samples were aliquoted into 2 mL microcentrifuge tubes at 0.5 mL.
On a 96-well plate, 1×10^4 CFU per well of C. albicans were incubated with different peptide concentrations (in serial dilutions of 1:10 and 1:5) starting with […] in a solution of buffer containing 10 mM sodium phosphate at pH 7.4 (3 hours, 37° C.). Serial dilutions were then carried out in 1× Dulbecco's PBS, and samples were plated in triplicate on Sabouraud Dextrose Agar plates, incubated (25° C., 48 hours) and CFUs were counted. C. albicans survival at each peptide concentration was calculated as previously described (Amer et al., supra; de Latour et al., supra), based on the percentage of the number of colonies in each experimental plate relative to the average number of colonies observed for assay cultures lacking peptide. […] In the equation, “Top” and “Bottom” refer to the upper and lower boundaries, and were constrained to values <100% and >0%, respectively. For graphing purposes, samples that had no peptide were plotted at 10^−9 μg/ml peptide. EC50 values were determined by fitting the data from the anti-microbial assays to a standard sigmoidal dose-response curve. Errors were reported based on the standard deviation from the mean of the log EC50 values. 2. Results

For assay [3], the system named is P. aeruginosa (ATCC 19429). Put plainly: Anti-microbial assay (CFU survival, EC50) against P. aeruginosa. The format is cell-based, Pseudomonas aeruginosa. Particulars: Example 6, FIG. 16; unit not given. As to the method: P. aeruginosa (ATCC 19429, American Type Culture Collection, Manassas, Va.) was grown in Nutrient Broth (Difco Laboratories, Detroit, Mich.) at 37° C. for 24 hours with shaking at 200 rpm. The CFU/ml was determined by growth on Nutrient Agar plates. For anti-microbial assays, frozen enumerated aliquots were thawed immediately before use.
Each experiment was repeated at least twice, and a representative experiment is shown, for clarity.

The subject of assay [4] is S. aureus (ATCC 25923). Put plainly: Anti-microbial assay (CFU survival, EC50) against S. aureus. It counts as cell-based, Staphylococcus aureus. To be noted: for EC50 against S. aureus, preliminary studies: Example 4, FIG. 10. The procedure: S. aureus (ATCC 25923, American Type Culture Collection, Manassas, Va.) was grown in Nutrient Broth (Difco Laboratories, Detroit, Mich.) at pH 7, 37° C., for 24 hours with shaking at 200 rpm. The overnight culture was frozen with 20% glycerol and stored at −80° C. The frozen stock was enumerated (CFU/ml) by dilution plating and growth on Nutrient Agar plates.
For anti-microbial assays, frozen enumerated aliquots were thawed and gently mixed immediately before use. […] Negative control wells contained bacteria with no peptide. […] The EC50 was calculated as previously described (de Latour et al., supra).
Errors were reported based on the standard deviation from the mean of the log10 EC50 values (Gordon et al., supra). 95% confidence intervals were used to determine whether points were statistically different at p=0.05.

Assay [5] deals with B. cereus (ATCC 11778). Put plainly: Anti-microbial performance against B. cereus, with and without FICOLL 70. The format is cell-based. Particulars: for fold increase in potency against B. cereus: 20% FICOLL 70 versus none.
In assay [6] the test system is A. baumannii. To be noted: Example 5, Table 9.
Protocol: Anti-microbial activity was determined for each peptide isomer by enumerating the number of viable colony forming units after incubating bacteria in media containing varied concentrations of peptide.
Assay [7] relates to E. coli (ATCC 25922). The experiment in a line: Anti-microbial performance against E. coli, with and without FICOLL 70. Particulars: for Average EC50, E. coli: unit inferred; for fold increase in potency against E. coli: 20% FICOLL 70 versus none; for Anti-microbial performance of ATRA-1A isomers (EC50) E coli (ATCC 25922): Example 5, Table 9. It counts as cell-based, Escherichia coli. The procedure: In these assays, bacteria (1×10^5 CFU/ml) were incubated for 3 hours at 37° C. with varied concentrations of peptide in 10 mM phosphate buffer (pH 7.4) containing 0 to 30% FICOLL™ 70. The potencies of the peptide isomers were determined by plotting bacterial survival (%) as a function of log peptide concentration and fitting the data to a standard dose response equation. Each experiment was conducted at least three times, with the exception of experiments with 15% and 30% FICOLL™, which were only performed once.

The subject of assay [8] is P. aeruginosa. The experiment in a line: Galleria mellonella infection by P. aeruginosa with AMP and antibiotic treatments. It counts as in vivo. Particulars: single dose: 5 μg ciprofloxacin or 10 μg peptide. As to the method:
Galleria mellonella (wax moth caterpillars) were obtained from Vanderhorst Wholesale (Saint Marys, Ohio). Eight to twelve caterpillars of equal size/weight were randomly assigned to each group. A 1 mL tuberculin syringe was used to inject 10 μl of 1×10^3 CFU/ml of P. aeruginosa into each caterpillar via the last left proleg. […] Caterpillar control groups included: injected with only PBS, ciprofloxacin, or AMPs. The insects were then observed daily for their survival status.

For assay [9], the system named is S. aureus biofilm. Put plainly: Biofilm production (crystal violet) and growth (OD600) of S. aureus in TSB. The format is cell-based, Staphylococcus aureus. The procedure:
Biofilm production was measured as previously described (Durham-Colleran et al., supra) with the following modifications. […] The positive control was S. aureus in TSB with no peptide. Six wells were used for each peptide concentration (n=6). After 24 hours, the optical densities (OD) of the wells were taken at 600 nm to quantify […]. The biofilm production was measured using the crystal violet stain technique (Durham-Colleran et al., supra). All experiments were repeated at least twice.

The subject of assay [10] is S. aureus. Put plainly: Biofilm attachment assay. The format is cell-based, Staphylococcus aureus. Particulars: 1 μg/ml peptide, 1 hour, 37° C. As to the method:
Biofilm attachment assays were performed in 96-well microtiter plates (BD Falcon 353072) as previously described (Overhage et al., supra). Overnight cultures of S. aureus were grown in TSB to an OD600 of about 1.0. […] The plates were incubated (1 hour, 37° C.) to allow the S. aureus to adhere to the wells. The wells were washed and OD600 measurements were taken, as in the biofilm production experiments, and the average absorbance for each treatment was determined (n=16).

The test system of assay [11] is P. aeruginosa biofilm. The experiment in a line: Biofilm production (crystal violet) and growth (OD600) of P. aeruginosa in TSB. The format is cell-based, Pseudomonas aeruginosa. As to the method:
Biofilm production was measured as previously described (Durham-Colleran et al. (2010) Microb. Ecol., 59(3):457-465) with the following modifications. P. aeruginosa (1×10^5 CFU) in 200 μl of TSB media (Trypticase Soy Broth) was incubated with peptide at concentrations of 1.0, 0.1, and 0.01 μg/ml for 24 hours at 37° C. (Table 2). Optical density of the cultures (OD600 nm) at 24 hours was determined prior to staining as a measure of bacterial growth. Six wells were used for each peptide concentration (n=6). Biofilm production was measured using the crystal violet stain technique (Durham-Colleran et al., supra).

≈ marks a conversion by molar mass, not a printed value. Where “and” joins values, the source holds several entries; their conditions need not be identical. Identical values can stand only once. Square brackets hold non-standard residues; d marks the D form. Ends that are not written are not given here. Peptide text beside a SMILES is read from it.

With “GLLRKGGEKIGEKLKKIGQKIKNFFQKLVPQPEQ [mCRAMP]”, in assay [1], the “inhibitory effect on biofilm formation, previously known” value is listed as “no inhibitory effect”.
In general, EC50 refers to the concentration that produces a half-maximal response. As to KRAKKFFKKLK-NH2 [ATRA-1A], in assay [2], the “EC50 against C. albicans” value worked out at 33.38 µg/mL, the “Inhibition of C. albicans” value is “consistently seen” and the EC50 amounted to 23.5 µM. In addition, the “average EC50 against P. aeruginosa” value in [3] is recorded as 14.22 (CI 10.4 to 19.4). Further, the “EC50 of AMPs against S. aureus” value in [4] (3 hours, 37° C., 10 mM sodium phosphate pH 7.4, ± standard deviation) came out at 1.45 ± 1.5 µg/mL. For the same compound, the “EC50 against S. aureus, preliminary studies” value in assay [4] is 0.27 µg/mL. Further, in assay [4] (Example 5, Table 9), the “Anti-microbial performance of ATRA-1A isomers (EC50) S. aureus” value turned out to be 1.45 µg/mL. Further, the half-maximal effective concentration (EC50) in assay [4] (converted from μg/ml with molecular weight of TFA salt) worked out at 0.62 µM. Further, in [5], the “fold increase in potency against B. cereus” value was found to be 14 fold; the “EC50 with 20% FICOLL 70, B. cereus” value was determined as 5.207 µg/mL; the “EC50 without FICOLL 70, B. cereus” value was determined as 72.41 µg/mL. The “Anti-microbial performance of ATRA-1A isomers (EC50) A. baumannii” value in assay [6] was found to be 53.25 µg/mL. Besides, the Average EC50, E. coli in [7] (0% FICOLL 70) is 2.9 µg/mL. In addition, the Average EC50, E. coli in assay [7] (5% FICOLL 70) was determined as 1.6 µg/mL. For the same compound, the Average EC50, E. coli in [7] (10% FICOLL 70) turned out to be 0.86 µg/mL. Further, in assay [7] (15% FICOLL 70, performed once), the Average EC50, E. coli was found to be 0.64 µg/mL. Further, the Average EC50, E. coli in [7] (20% FICOLL 70) is 0.42 µg/mL. Also, in [7], the “fold increase in potency against E. coli” value is reported as 10.66 fold; the “Anti-microbial performance of ATRA-1A isomers (EC50) E coli (ATCC 25922)” value came out at 4.323 µg/mL; the “EC50 with 20% FICOLL 70, E. coli” value is 0.420 µg/mL; the “EC50 without FICOLL 70, E. coli” value was 4.232 µg/mL. Besides, the Average EC50, E. coli in [7] (30% FICOLL 70, performed once) amounted to 0.29 µg/mL.
Regarding `O=C(O)c1cn(C2CC2)c2cc(N3CCNCC3)c(F)cc2c1=O` [ciprofloxacin], the “effect on survival of infected G. mellonella” value in [8] is recorded as “effective”. Further, in [8] (1×10^3 CFU), the “survival of P. aeruginosa-infected G. mellonella” value came out at 55%.
On to “GLKLRFEFSKIKGEFLKTPEVRFRDIKLKDNRISVQR [Scrambled LL-37, reference compound]”, for which the “inhibition of biofilm formation” value is on record as “no inhibition of biofilm formation” in assay [9] (TSB, concentrations without anti-microbial activity) and “no inhibition of biofilm formation” in assay [11] (TSB, any concentration tested (up to 1 μg/ml)). Besides, in [10], the “attachment of S. aureus to polystyrene wells” value is “did not decrease”.
Consider `CC(C)C[C@@H](NC(=O)[C@@H](CCCCN)NC(=O)[C@@H](CCCCN)NC(=O)[C@@H](Cc1ccccc1)NC(=O)[C@@H](Cc1ccccc1)NC(=O)[C@@H](CCCCN)NC(=O)[C@@H](CCCCN)NC(=O)[C@@H](C)NC(=O)[C@@H](CCCNC(=N)N)NC(=O)[C@H](N)CCCCN)C(=O)N[C@H](CCCCN)C(N)=O` [D-ATRA-1A] (H-[dK][dR][dA][dK][dK][dF][dF][dK][dK][dL][dK]-NH2; N-terminus assumed), for which the “inhibiting biofilm growth, D- versus L-ATRA-1A” value in assay [9] (1 μg/ml, FIG. 20) is listed as “more effective at inhibiting biofilm growth”. Further, in assay [2], the “EC50 against C. albicans” value came to 22.10 µg/mL (≈ 15.6 µM), the “Inhibition of C. albicans” value is reported as “consistently seen” and the EC50 was 15.6 µM. Besides, the “average EC50 against P. aeruginosa” value in assay [3] is given as 9.643 (CI 6.5 to 14.2). In addition, the “inhibiting biofilm growth, D- versus L-ATRA-1A” value in assay [11] (1 μg/ml, FIG. 20) was “more effective at inhibiting biofilm growth”. Also, the “fold difference in activities of L- and D-ATRA-1A against S. aureus” value in assay [4] (D less effective than L) is recorded as 30 fold. Further, the “EC50 against S. aureus, preliminary studies” value in assay [4] was determined as 6.97 µg/mL (≈ 4.91 µM). The “EC50 against S. aureus, two best data sets” value in [4] (Example 6, FIGS. 14 and 15, left and right panels) was 26.53 µg/mL and 25.02 µg/mL. In [5], the “fold increase in potency against B. cereus” value was 54.34 fold; the “EC50 with 20% FICOLL 70, B. cereus” value came out at 0.0406 µg/mL; the “EC50 without FICOLL 70, B. cereus” value came to 2.330 µg/mL. Further, the “Anti-microbial performance of ATRA-1A isomers (EC50) A. baumannii” value in [6] was 9.73 µg/mL. Moreover, the Average EC50, E. coli in [7] (0% FICOLL 70) amounted to 1.3 µg/mL. Moreover, the Average EC50, E. coli in assay [7] (5% FICOLL 70) came to 0.71 µg/mL. Also, in assay [7] (10% FICOLL 70), the Average EC50, E. coli is 0.24 µg/mL. Besides, the Average EC50, E. coli in assay [7] (15% FICOLL 70, performed once) came to 0.1 µg/mL. Besides, in assay [7] (20% FICOLL 70), the Average EC50, E. coli is 0.085 µg/mL. Also, in [7], the “fold increase in potency against E. coli” value turned out to be 13.66 fold; the “Anti-microbial performance of ATRA-1A isomers (EC50) E coli (ATCC 25922)” value turned out to be 1.302 µg/mL; the “EC50 with 20% FICOLL 70, E. coli” value was found to be 0.0850 µg/mL; the “EC50 without FICOLL 70, E. coli” value worked out at 1.302 µg/mL. The Average EC50, E. coli in assay [7] (30% FICOLL 70, performed once) is 0.01 µg/mL.
